Results from PubChem BioAssay AID1963965 (Molecular Pharmacology Branch, DTP, NCI, 2024).
pIC50: −log10 of the molar value.

System: 996289-038-R-J1-PDC spheroid viability
Experiment: Anticancer human tumor 996289-038-R-J1-PDC patient-derived colon adenocarcinoma cell line growth inhibition [PI3K]
Details: spheroids with HUVEC and MSC; for pIC50: curve of first compound; for viability, T/C: stronger effect = lower value; active means viability on the fitted dose curve at most 10% of control; inactive means the rest
Summary of the method: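 Agents were dosed from a top concentration near clinical Cmax (otherwise 10 microM) in half-log decrements, alone or combined with PI3K inhibitors. The spheroids contain tumor cells plus endothelial (HUVEC) and MSC stroma; viability is measured.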
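Further: spheroids exposed to compounds for seven days before viability read.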
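Wherever viability, T/C is given: luminescence used as a proxy for viable cell amount; percent viability relative to DMSO vehicle control as 100%.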

Cn1cnc2c(F)c(Nc3ccc(Br)cc3Cl)c(C(=O)NOCCO)cc21 + CC(Nc1ccc2c(c1)OCCn1cc(N3C(=O)OCC3C(F)F)nc1-2)C(N)=O
7.41: pIC50 (second compound 0.316 µM)
7.04: pIC50 (second compound 0.1 µM)
6.55: pIC50 (second compound 0.00316 µM)
inactive: viability, T/C (second compound 0.00316 µM, first compound 0.00949 µM) 100% | viability, T/C (second compound 0.00316 µM, first compound 0.03 µM) 84.9% | viability, T/C (second compound 0.00316 µM, first compound 0.0949 µM) 64% | viability, T/C (second compound 0.00316 µM, first compound 0.3 µM) 51% | viability, T/C (second compound 0.00316 µM, first compound 0.949 µM) 35.1% | viability, T/C (second compound 0.00316 µM, first compound 3 µM) 26.2% | viability, T/C (second compound 0.01 µM, first compound 0.00949 µM) 95.9% | viability, T/C (second compound 0.01 µM, first compound 0.03 µM) 74.2% | viability, T/C (second compound 0.01 µM, first compound 0.0949 µM) 71.6% | viability, T/C (second compound 0.01 µM, first compound 0.3 µM) 49.9% | viability, T/C (second compound 0.01 µM, first compound 0.949 µM) 36.3% | viability, T/C (second compound 0.01 µM, first compound 3 µM) 24.7% | viability, T/C (second compound 0.0316 µM, first compound 0.00949 µM) 95.3% | viability, T/C (second compound 0.0316 µM, first compound 0.03 µM) 79.7% | viability, T/C (second compound 0.0316 µM, first compound 0.0949 µM) 58.6% | viability, T/C (second compound 0.0316 µM, first compound 0.3 µM) 44.1% | viability, T/C (second compound 0.0316 µM, first compound 0.949 µM) 35.6% | viability, T/C (second compound 0.0316 µM, first compound 3 µM) 23.7% | viability, T/C (second compound 0.1 µM, first compound 0.00949 µM) 84.7% | viability, T/C (second compound 0.1 µM, first compound 0.03 µM) 69.3% | viability, T/C (second compound 0.1 µM, first compound 0.0949 µM) 47.3% | viability, T/C (second compound 0.1 µM, first compound 0.3 µM) 35% | viability, T/C (second compound 0.1 µM, first compound 0.949 µM) 26.7% | viability, T/C (second compound 0.1 µM, first compound 3 µM) 18.5% | viability, T/C (second compound 0.316 µM, first compound 0.00949 µM) 60.6% | viability, T/C (second compound 0.316 µM, first compound 0.03 µM) 53.4% | viability, T/C (second compound 0.316 µM, first compound 0.0949 µM) 41.8% | viability, T/C (second compound 0.316 µM, first compound 0.3 µM) 31.1% | viability, T/C (second compound 0.316 µM, first compound 0.949 µM) 24.9% | viability, T/C (second compound 0.316 µM, first compound 3 µM) 13.7% | viability, T/C (second compound 1 µM, first compound 0.00949 µM) 58.7% | viability, T/C (second compound 1 µM, first compound 0.03 µM) 48% | viability, T/C (second compound 1 µM, first compound 0.0949 µM) 38.4% | viability, T/C (second compound 1 µM, first compound 0.3 µM) 27.4% | viability, T/C (second compound 1 µM, first compound 0.949 µM) 18.9% | viability, T/C (second compound 1 µM, first compound 3 µM) 11.4%
6.47: pIC50 (second compound 0.01 µM)
6.69: pIC50 (second compound 0.0316 µM)
7.60: pIC50 (second compound 1 µM)

C#Cc1c(F)ccc2cc(O)cc(-c3ncc4c(N5CC6CCC(C5)N6)nc(OCC56CCCN5CC(F)C6)nc4c3F)c12 (centres undefined) + Cc1nc(NC(=O)N2CCCC2C(N)=O)sc1-c1ccnc(C(C)(C)C(F)(F)F)c1
active: viability, T/C (second compound 10 µM, first compound 10 µM) 6.74%
6.21: pIC50 (second compound 0.1 µM)
6.81: pIC50 (second compound 1 µM)
7.11: pIC50 (second compound 3.16 µM)
inactive: viability, T/C (second compound 0.0316 µM, first compound 0.0316 µM) 80.9% | viability, T/C (second compound 0.0316 µM, first compound 0.1 µM) 77.1% | viability, T/C (second compound 0.0316 µM, first compound 0.316 µM) 66.6% | viability, T/C (second compound 0.0316 µM, first compound 1 µM) 53.9% | viability, T/C (second compound 0.0316 µM, first compound 3.16 µM) 45.4% | viability, T/C (second compound 0.0316 µM, first compound 10 µM) 40.2% | viability, T/C (second compound 0.1 µM, first compound 0.0316 µM) 94.4% | viability, T/C (second compound 0.1 µM, first compound 0.1 µM) 78.5% | viability, T/C (second compound 0.1 µM, first compound 0.316 µM) 55.6% | viability, T/C (second compound 0.1 µM, first compound 1 µM) 45.1% | viability, T/C (second compound 0.1 µM, first compound 3.16 µM) 39.6% | viability, T/C (second compound 0.1 µM, first compound 10 µM) 33.4% | viability, T/C (second compound 0.316 µM, first compound 0.0316 µM) 72.9% | viability, T/C (second compound 0.316 µM, first compound 0.1 µM) 55% | viability, T/C (second compound 0.316 µM, first compound 0.316 µM) 50.8% | viability, T/C (second compound 0.316 µM, first compound 1 µM) 40.1% | viability, T/C (second compound 0.316 µM, first compound 3.16 µM) 37.8% | viability, T/C (second compound 0.316 µM, first compound 10 µM) 27.8% | viability, T/C (second compound 1 µM, first compound 0.0316 µM) 65.5% | viability, T/C (second compound 1 µM, first compound 0.1 µM) 54.8% | viability, T/C (second compound 1 µM, first compound 0.316 µM) 42.6% | viability, T/C (second compound 1 µM, first compound 1 µM) 33.2% | viability, T/C (second compound 1 µM, first compound 3.16 µM) 27.8% | viability, T/C (second compound 1 µM, first compound 10 µM) 23.4% | viability, T/C (second compound 3.16 µM, first compound 0.0316 µM) 64% | viability, T/C (second compound 3.16 µM, first compound 0.1 µM) 47.2% | viability, T/C (second compound 3.16 µM, first compound 0.316 µM) 30.5% | viability, T/C (second compound 3.16 µM, first compound 1 µM) 26.8% | viability, T/C (second compound 3.16 µM, first compound 3.16 µM) 23.3% | viability, T/C (second compound 3.16 µM, first compound 10 µM) 16.9% | viability, T/C (second compound 10 µM, first compound 0.0316 µM) 37.6% | viability, T/C (second compound 10 µM, first compound 0.1 µM) 35.6% | viability, T/C (second compound 10 µM, first compound 0.316 µM) 22.2% | viability, T/C (second compound 10 µM, first compound 1 µM) 16.7% | viability, T/C (second compound 10 µM, first compound 3.16 µM) 14.5%
6.54: pIC50 (second compound 0.316 µM)
> 7.50: pIC50 (second compound 10 µM)
5.78: pIC50 (second compound 0.0316 µM)
